Measurements taken from US20180333382A1, “PHARMACEUTICAL COMPOSITIONS COMPRISING DGLA AND USE OF SAME” (DS Biopharma Limited, priority 2017, published 2018).
Read-outs that look alike come from different tables or passages of the source.

Experiment: Phase one study part 2: multiple dose (28 days) plasma PK of free and total DGLA
Assay type: in vivo, human
Conditions: for Tmax / half-life: human, plasma, oral; for half-life: read-out: t1/2, median, free DGLA, baseline-corrected plasma (converted); for free DGLA Peak Trough Fluctuation (PTF), mean: steady state Day 28 (0-24 hours)
Protocol: Multiple dose part two of the study comprised two cohorts (Cohorts five and six) of eight subjects each, who were administered multiple doses of study drug in the fasted state for 28 days. Subjects in Cohorts five and six received DS107G at 2000 or 4000 mg, respectively, or matching placebo once daily for 28 days. Cohort six was started after Cohort five's safety data were evaluated by the SMC. No interim analysis was planned. […]
In Part two of the study (Cohorts five and six), subjects were administered study drug (500-mg DS107G capsules or matching placebo capsules) once daily in the fasted state for 28 days. Subjects in Cohort five received study drug first and, if they tolerated the 2000-mg daily dose for the first 14 days, subjects in Cohort six were started on the 4000-mg daily dose for 28 days.
PK parameter was computed after correcting the dosed DGLA concentrations with baseline DGLA concentrations.

[1] = 4000 mg once daily, Day 28, 0 to 24 hours
[2] = 4000 mg once daily, Day 28, 0 to 168 hours
[3] = 4000 mg once daily, Day 28: 0 to 24 hours

In the case of `CCCCC/C=C\C/C=C\C/C=C\CCCCCCC(=O)O` [DS107G, Dihomo gamma linolenic acid], the “AUC0-24, mean, free DGLA, baseline-corrected plasma” value [1] is reported as 16155.2 ng·h/mL, the “AUC0-24/Dose, mean, free DGLA, baseline-corrected plasma” value [1] is reported as 4.04 h/kL and the “AUC0-24/Dose, mean, total DGLA, baseline-corrected plasma” value [1] is reported as 465.14 h/kL. The “AUC0-inf, mean, free DGLA, baseline-corrected plasma” value [1] was 22926.3 ng·h/mL, the “AUC0-inf/Dose, mean, free DGLA, baseline-corrected plasma” value [1] was 5.73 h/kL and the “AUC0-inf/Dose, mean, total DGLA, baseline-corrected plasma” value [1] was 1194.91 h/kL. For the same compound, the “CL/F, mean, free DGLA, baseline-corrected plasma” value [1] was 0.1865 kL/h, the “Cmax, mean, free DGLA, baseline-corrected plasma” value [1] was 2873.2 ng/mL and the “Cmax/Dose, mean, free DGLA, baseline-corrected plasma” value [1] was 0.718 kL⁻¹. For the same compound, the “Cmax/Dose, mean, total DGLA, baseline-corrected plasma” value [1] was 22.717 kL⁻¹, the “λz, mean, free DGLA, baseline-corrected plasma” value [1] was 0.0596 h⁻¹ and the “λz, mean, total DGLA, baseline-corrected plasma” value [1] was 0.0471 h⁻¹. For the same compound, the “AUC0-24, mean, free DGLA, baseline-corrected plasma” value [2] was 16155.2 ng·h/mL, the “AUC0-24/Dose, mean, free DGLA, baseline-corrected plasma” value [2] was 4.04 h/kL and the “AUC0-24/Dose, mean, total DGLA, baseline-corrected plasma” value [2] was 465.14 h/kL. The “AUC0-inf, mean, free DGLA, baseline-corrected plasma” value [2] was 43184.3 ng·h/mL, the “AUC0-inf/Dose, mean, free DGLA, baseline-corrected plasma” value [2] was 10.80 h/kL and the “AUC0-inf/Dose, mean, total DGLA, baseline-corrected plasma” value [2] was 1575.98 h/kL. The “CL/F, mean, free DGLA, baseline-corrected plasma” value [2] was 0.1266 kL/h, the “Cmax, mean, free DGLA, baseline-corrected plasma” value [2] was 2873.2 ng/mL and the “Cmax/Dose, mean, free DGLA, baseline-corrected plasma” value [2] was 0.718 kL⁻¹. For the same compound, the “Cmax/Dose, mean, total DGLA, baseline-corrected plasma” value [2] was 22.717 kL⁻¹, the “λz, mean, free DGLA, baseline-corrected plasma” value [2] was 0.0404 h⁻¹ and the “λz, mean, total DGLA, baseline-corrected plasma” value [2] was 0.0194 h⁻¹. The “% PTF (peak trough fluctuation), mean, free DGLA, steady-state baseline-corrected plasma” value [3] was 431.97%, the “% PTF (peak trough fluctuation), mean, total DGLA, steady-state baseline-corrected plasma” value [3] was 44.90% and the “AR(AUC) accumulation ratio, mean, free DGLA, steady-state baseline-corrected plasma” value [3] was 1.561. The “AR(AUC) accumulation ratio, mean, total DGLA, steady-state baseline-corrected plasma” value [3] was 4.163, the “AR(Cmax) accumulation ratio, mean, free DGLA, steady-state baseline-corrected plasma” value [3] was 1.385 and the “AR(Cmax) accumulation ratio, mean, total DGLA, steady-state baseline-corrected plasma” value [3] was 3.440. For the same compound, the “CLss/F, mean, free DGLA, steady-state baseline-corrected plasma” value [3] was 0.2858 kL/h, the “CLss/F, mean, total DGLA, steady-state baseline-corrected plasma” value [3] was 0.0025 kL/h and the “Cavg, mean, free DGLA, steady-state baseline-corrected plasma” value [3] was 673.1 ng/mL. The “Cavg, mean, total DGLA, steady-state baseline-corrected plasma” value [3] was 77523.9 ng/mL, the “Cmin, mean, free DGLA, steady-state baseline-corrected plasma” value [3] was 147.0 ng/mL and the “Cmin, mean, total DGLA, steady-state baseline-corrected plasma” value [3] was 59216.7 ng/mL. For the same compound, the “Vzss/F, mean, free DGLA, steady-state baseline-corrected plasma” value [3] was 5.7563 kL, the “Vzss/F, mean, total DGLA, steady-state baseline-corrected plasma” value [3] was 0.1047 kL and the “tmin, median, free DGLA, steady-state baseline-corrected plasma” value [3] was 8.00 h. The “tmin, median, total DGLA, steady-state baseline-corrected plasma” value [3] was 2.00 h, the “time to reach steady-state plasma concentrations, free and total DGLA” value (2000 and 4000 mg daily) was roughly 14 days and the “free DGLA mean baseline-corrected AUC0-24, 4000 mg vs 2000 mg dose” value (Day 1) was roughly 2.5 fold. The “free DGLA mean baseline-corrected Cmax, 4000 mg vs 2000 mg dose” value (Day 1) was roughly 3 fold, the “total DGLA mean baseline-corrected AUC0-24, 4000 mg vs 2000 mg dose” value (Day 1) was roughly 1.5 fold and the “total DGLA mean baseline-corrected Cmax, 4000 mg vs 2000 mg dose” value (Day 1) was roughly 1.5 fold. The “free DGLA mean baseline-corrected AUC0-24, 4000 mg vs 2000 mg dose” value (Day 28) was roughly 1.7 fold, the “free DGLA mean baseline-corrected Cmax, 4000 mg vs 2000 mg dose” value (Day 28) was roughly 1.4 fold and the “total DGLA mean baseline-corrected AUC0-24, 4000 mg vs 2000 mg dose” value (Day 28) was roughly 1.4 fold. The “total DGLA mean baseline-corrected Cmax, 4000 mg vs 2000 mg dose” value (Day 28) was roughly 1.2 fold, the “time of peak mean concentration of free DGLA after dosing” value (Days 1 and 28, 2000 and 4000 mg daily) was “about 4 hours” and the Tmax (both sexes, both dose cohorts, Day 1 and Day 28, read-out: free DGLA median tmax) was 4 to 5 h. For the same compound, the half-life (2000 mg, 2000 mg once daily, Day 1, 0 to 24 hours) was 4.71 h, the Tmax (2000 mg, 2000 mg once daily, Day 1, 0 to 24 hours, read-out: tmax, median, free DGLA, baseline-corrected plasma) was 4 h and the half-life (2000 mg, 2000 mg once daily, Day 28, 0 to 24 hours) was 14 h. For the same compound, the Tmax (2000 mg, 2000 mg once daily, Day 28, 0 to 24 hours, read-out: tmax, median, free DGLA, baseline-corrected plasma) was 4 h, the half-life (2000 mg, 2000 mg once daily, Day 28, 0 to 168 hours) was 63.6 h and the Tmax (2000 mg, 2000 mg once daily, Day 28, 0 to 168 hours, read-out: tmax, median, free DGLA, baseline-corrected plasma) was 4 h. The half-life (4000 mg, 4000 mg once daily, Day 1, 0 to 24 hours) was 5.92 h, the Tmax (4000 mg, 4000 mg once daily, Day 1, 0 to 24 hours, read-out: tmax, median, free DGLA, baseline-corrected plasma) was 5 h and the half-life (4000 mg, 4000 mg once daily, Day 28, 0 to 24 hours) was 12.7 h. For the same compound, the Tmax (4000 mg, 4000 mg once daily, Day 28, 0 to 24 hours, read-out: tmax, median, free DGLA, baseline-corrected plasma) was 4 h, the half-life (4000 mg, 4000 mg once daily, Day 28, 0 to 168 hours) was 48.2 h and the Tmax (4000 mg, 4000 mg once daily, Day 28, 0 to 168 hours, read-out: tmax, median, free DGLA, baseline-corrected plasma) was 4 h. For the same compound, the “increase of average concentration at steady state when dose doubled from 2000 to 4000 mg daily, free DGLA” value (in vivo) was 1.6 fold, the “increase of average concentration at steady state when dose doubled from 2000 to 4000 mg daily, total DGLA” value (in vivo) was 1.2 fold and the “free DGLA Peak Trough Fluctuation (PTF), mean” value (first value of both dose cohorts (2000 mg)) was roughly 430%. For the same compound, the “free DGLA Peak Trough Fluctuation (PTF), mean” value (second value of both dose cohorts (4000 mg)) was roughly 490%.
